One may read the melting point as the temperature, or range, at which the solid turns liquid.

This note sets out measurements from a melting point compilation (Tetko et al.; mined from patent text by program, amines drawn as free bases though some values may be those of a salt).

A value given as a limit tells only on which side of the number the result lay.

For the molecule `CCn1ncc2c(Cl)c3c(nc21)C(=O)c1ccccc1CC3`, the melting point was in the range of 156 to 159 °C.
The molecule `O=CNNC(C(=O)O)c1ccccc1` (stereo unspecified) showed a melting point of 137 °C.
The figure for `O=c1nc(Nc2ccc(Cl)cc2)sc2ncccc12` is 278 to 279 °C; for `COC(=O)/C=C/C=C/c1ccc(OCc2nc(-c3ccccc3)oc2C)c(OC)c1` it is 166 to 167 °C; for `Cc1cc(=S)cc(C)n1CCN` it is 162 to 164 °C.
In turn, `Cc1cc(S(=O)(=O)O)ccc1OCc1ccccc1C(=O)O` had a melting point of 242 to 244 °C.
`CCC1(CCCCN2CCN(c3ccccn3)CC2)C(=O)Nc2c(Cl)cc(Cl)cc21` (stereo unspecified): the melting point fell in the range of 144 to 146 °C.
The figure for `COC(=O)c1c(C(F)F)nc(C(F)(F)F)c(C(=O)OC)c1CSC` is 50.5 to 51.5 °C; for `CCOC(=O)/C=C/c1ccc(OS(=O)(=O)C(F)(F)F)c(Cl)c1` it is 59 to 61 °C; for `CC(COc1cccc(=O)n1O)CC(C)(C)C` (stereo unspecified) it is 134 °C.
Turning to `c1cc2c3c(c1)CNc1ccccc1N3CC2`, the melting point lay in the range of 175 to 177 °C.
Next, `CCCCCC(O)CCCC(Cc1ccc(C=CC(=O)O)cc1)C(C)=O` (stereo unspecified): 87 to 92 °C; `CC(C)C[C@@H]1NC(=O)O[C@H]1CCS(=O)(=O)CCc1ccccc1`: 100 to 101 °C; `Cc1c(CCC2C(=O)OCCC2OC2CCCCO2)c2c(c(C)c1OCc1ccccc1)CCC(C)(C)O2` (stereo unspecified): 95 to 95.5 °C.
The figure for `O=C(Nc1nc(C(F)(F)F)c(I)s1)c1c(Cl)cccc1Cl` is 157 to 159 °C; for `CC(=O)Nc1cccc(-c2ccc(C#N)c(=O)[nH]2)c1` it is 326 to 328 °C; for `CCOCCNC1CCCCC1Cc1ccc(-c2cccc(N)n2)cc1` (stereo unspecified) it is 70 to 90 °C.
In the case of `CC(=O)c1ccc(CC(C)C)c(C#N)c1`, the melting point was in the range of 71 to 72 °C.
`C(=C\c1cccs1)/c1ncon1` came in with a melting point of 78 °C.
With `CCOC(=O)C=Cc1ccc(NC(=O)CC)cc1`, the melting point came to 138 °C.
Next, `CC1COP(=O)(Cc2ccc([N+](=O)[O-])cc2)OC1` (stereo unspecified): 170 to 171 °C.
The figure for `COC(=O)c1cc(NC(=O)C2CCCCC2)c2cc(Cc3ccc(F)cc3)cnc2c1O` is 250 to 251 °C; for `COC(=O)c1cc(NC(=O)c2cc(NC(=O)c3cc(NC(=O)OC(C)(C)C)cn3C)cn2C)cn1C` it is 134 °C; for `CC(=O)O[C@@H]1C2=C(OC(C(C)=O)=C[C@@H]2N2CCCCC2=O)SC1(C)C` (relative stereo) it is 180 °C.
Next, `COC(=O)[C@H]1C[C@H](NC(=O)Cc2ccccc2)c2c(Cl)cc(Cl)cc2N1` (relative stereo): 226 to 228 °C; `CCCOCCOc1ccc(-c2ccc3c(c2)C=C(C(=O)Nc2ccc(CN(C)C4CCOCC4)cc2)CCS3(=O)=O)cc1Cl`: 183 to 184 °C.
With `COCCOc1cc(N)c(S(C)(=O)=O)cc1[N+](=O)[O-]`, the melting point was in the range of 166 to 167 °C.
Next, `O=C(Nc1ccc2ccc(Oc3ccccc3)nc2n1)C1=CSCCS1`: 240 °C; `N#Cc1ccc(OCCN2CCN(c3cc(Cl)nnc3Cl)CC2)cc1`: 175 to 177 °C; `CCN(CC)CCCCC(=O)c1ccc2c(c1)C(=O)c1cc(C(=O)CCCCN(CC)CC)ccc1-2`: 108 to 110 °C.
Consider `CSc1ccc(C(=O)c2c(C)cc3n2CCC3C(=O)OC(C)c2ccccc2)n1C` (stereo unspecified), for which the melting point is 122 to 123 °C.
Take `COCc1cnc(N)nc1N`: the melting point lay within 171 to 174 °C.
`CC(C)(C)c1ccccc1N1CCN(C(=O)CC#N)CC1` displayed a melting point of 163 to 164 °C.
Molecule `CN1c2ccccc2N(C(=O)c2ccc(-c3ccccc3)cc2)Cc2cccnc21` gave a melting point of 220 to 223 °C.
As to `Cc1cccc(N)c1CNc1cccn2c(C=O)c(C)nc12`, the melting point lay within 230 to 234 °C.
Molecule `CC(C)(C)[Si](Oc1ccc(OCC2CO2)cc1)(c1ccccc1)c1ccccc1` (stereo unspecified) gave a melting point of 97 to 98 °C.
`COC(=O)NC1CCN(c2ncc3ncnc(Nc4ccc(F)c(Cl)c4)c3n2)CC1` had a melting point of 195 to 197 °C.
The molecule `COc1cc(/C=C/C(=O)Nc2ccccc2C(=O)O)ccc1OCc1cn(CC(=O)Nc2ccccc2)nn1` displayed a melting point of 220 to 222 °C.
The figure for `NC(=S)c1ncn(C2OC(CO)C(O)C2O)n1` (stereo unspecified) is 173 to 175 °C; for `O=C(NO)c1ccc(N2CCCC2)cn1` it is 220 to 225 °C; for `CCc1c(CC)n(Cc2ccccc2Cl)c2cc(C(N)=O)ccc12` it is 185 to 188 °C.
Next, `Cc1nc2n(c(=O)c1CCN1CCC(c3n[nH]c4cc(F)ccc34)CC1)CCS2`: 208 °C.
Next, `CCCCCCc1cc2c(=O)c(-c3ccc(OC)cc3)coc2cc1O`: 188 °C.
Regarding `CCCCCOc1ccc(-c2ncc(C#N)cn2)cc1`, the melting point lay in the range of 98 to 98.1 °C.
The molecule `CN(C)C(=S)SSCCSSC(=S)N(C)C` displayed a melting point of 142 to 143 °C.
Next, `COc1ccc(C(=O)Nc2ccccc2)cc1NCc1cccc([N+](=O)[O-])c1`: 172 to 175 °C; `COc1cc(I)cc(C(N)=O)c1`: 175 to 176 °C.
Molecule `Ic1ccc(-c2cc[nH]c2)cc1` came in with a melting point of 164 to 165 °C.
The figure for `Cc1nc2c(n1Cc1ccccc1)CCCC2=O` is 115 °C; for `CCOC(=O)C(=Cc1ccc(C)s1)C(=O)OCC` it is 53 to 56 °C; for `Cc1ccc(OC2CCC3C4CC=C5CC(O[Si](C)(C)C(C)(C)C)CCC5(C)C4CCC23C)cc1` (stereo unspecified) it is 137 to 138 °C.
Regarding `N#Cc1c(C(N)=O)c2n(c1C1CC1)CCN(S(=O)(=O)c1ccc(C(F)(F)F)cc1)C2`, the melting point is 253 to 256 °C.
As to `COc1cc2c(c3c1OC(C)(C)C3)C(c1cccc(NC(=O)Cc3ccncc3)c1)=NC(C)(C)C2`, the melting point was in the range of 124 to 128 °C.
`CN(C)c1ccc(CC(CS)C(=O)Nc2cccc(C(=O)O)c2)cc1` (stereo unspecified) gave a melting point of 91 to 93 °C.
`CC(C)(C)OC(=O)N1CCN(C(=O)c2ccccc2)CC1` displayed a melting point of 106 °C.
The figure for `Cc1noc2cc3c(cc12)C1(CO3)C(=O)N(Cc2ccccc2C(F)(F)F)c2ccccc21` (stereo unspecified) is 192 to 194 °C.
Molecule `CC1(C)Oc2cc(C#N)sc2[C@@H](N2CCCCC2=O)[C@@H]1OCc1ccccc1` (relative stereo) returned a melting point of 174 to 178 °C.
With `FC(F)c1ccc2c(c1)C(Cc1ccncc1)(Cc1ccncc1)c1ccccc1-2`, the melting point is more than 300 °C.
Regarding `Oc1cc(-c2ccc(F)cc2)nc2ccsc12`, the melting point lay in the range of 316 to 318 °C.
The figure for `CCCCC1=NC2(CCCC2)C(=O)N1Cc1ccc(-c2ccccc2S(=O)(=O)Nc2onc(C)c2C)c(COCC)c1` is 74 to 80 °C; for `CC(=O)N(CC(C)C)C1NC(=O)N(c2cccs2)C(=O)N1` it is 138 to 139 °C; for `CCCc1nc2c(N)nc3ccccc3c2n1CCS(C)(=O)=O` it is 212 to 214 °C.
On to `COc1c(Cl)nc(-c2ccccc2)nc1Cl`, for which the melting point lay in the range of 78 to 80 °C.
The figure for `O=C(c1cccc(Cl)c1)c1cccc(Cl)c1` is 117 °C; for `CC(=O)Nc1ccc2c(c1)C(CN1CC=C(c3cn(C)c4cc(Cl)ccc34)CC1)CC2` (stereo unspecified) it is 189 to 193 °C; for `CS(=O)(=O)c1nccn1-c1nc(-c2ccc(Cl)cc2)c(CCC(=O)O)o1` it is 166 to 167 °C.
Next, `CCOC(=O)Nc1ccc(C2CCN(C(=O)OC(C)(C)C)CC2)cc1`: 126 to 128 °C.
The figure for `CCCCCCNC(=O)Oc1ccc2oc3ccccc3c2c1` is 109 to 110 °C.
`COc1cc(COc2nn(Cc3cccnc3)cc2CO)ccc1OCc1nc(-c2ccco2)oc1C` displayed a melting point of 90 to 91 °C.
As to `O=C1CCN(Cc2ccccc2OC(F)(F)F)CC1C(c1ccc(F)cc1)c1ccc(F)cc1` (stereo unspecified), the melting point is 88 to 89 °C.
The figure for `Cc1ccc(C2CNCc3[nH]c4ccccc4c32)cc1` (stereo unspecified) is 223 to 224 °C; for `O=C1c2ccccc2C(=O)c2sc(-c3ccccn3)nc21` it is more than 260 °C; for `Cc1ncc(C#N)c(Nc2cccc3[nH]ccc23)c1-c1cc2ccccc2o1` it is 192 to 193 °C.
The figure for `CCCCc1cc(C(O)=S)cc(N)c1C(=O)c1ccccc1` is 144 to 145 °C.
The figure for `CCCCOc1ccc(S(=O)(=O)C2(C(=O)NO)CCN(C)CC2)cc1` is 118 °C.
`COc1ccc(C=CC(=O)NCCc2ccc(OC(C)(C)C(=O)O)cc2)cc1` had a melting point of 158 to 159 °C.
Turning to `O=C(O)CNC[C@H]1O[C@H](c2ccccc2Cl)c2cc(Cl)ccc2N(Cc2ccccc2)C1=O` (relative stereo), the melting point lay in the range of 224 to 226 °C.
With `O=C(O)C(=O)c1cc(F)c(OCCOc2ccc3ccccc3c2)c(F)c1`, the melting point lay within 129 to 130 °C.
The figure for `CCNc1nc(S(C)=O)ncc1C(=O)OCC` (stereo unspecified) is 54 to 56 °C; for `O=C(Cc1ccccc1)NCC(O)c1ccccc1` (stereo unspecified) it is 97 to 99 °C; for `CCOc1ccc2c(c1)C(N)(c1ccccc1Cl)C(=O)N2Cc1ccc(C(=O)NC(C)(C)CN(CC)CC)cc1` (stereo unspecified) it is 59 °C.
For `CCCc1nc(-c2ccc(OCCCn3ccnc3)cc2)no1`, the melting point lay in the range of 57 to 58 °C.
`CC1(C)N(CC(N)=O)C(=O)CN1C(=O)CCl`: the melting point was in the range of 214 to 216 °C.
The figure for `CCN(CC)C(=O)n1cnc(S(=O)(=O)CC2CCCCO2)n1` (stereo unspecified) is 122 °C; for `CCCCc1ncc(CC(=O)NCC(=O)O)n1Cc1ccccc1Cl` it is 84 to 88 °C.
For `CCOC(=O)C(=O)c1oc(=O)[nH]c1-c1ccc(Cl)cc1`, the melting point lay in the range of 152 to 153 °C.
In turn, `Clc1ccc(-c2[nH]nc(C3=CCN4CCC[C@H]4C3)c2-c2ccncc2)cc1` showed a melting point of 211 to 212 °C.
In turn, `Cc1nc(-c2cn(Cc3ccc(F)cc3)nn2)sc1C(=O)NCc1ccccc1` displayed a melting point of 114 to 115 °C.
The figure for `CCOC(=O)Nc1cc(Cl)nc(NC(=O)OCC)n1` is 153 to 154 °C.
Next, `Nc1ccc(S(=O)(=O)Nc2cccc3[nH]ccc23)cc1`: 215 °C; `CNC(=O)ON=C(C)CSC(F)(F)F`: 56 to 58 °C.
